Assay results as given in paper PMC3391563 (2011).
Like-named read-outs stand apart in the source and are kept apart here.

Assays:
[1] = target: T1, Af-OMO (ornithine monooxygenase, SidA) (Aspergillus fumigatus, UniProt E9QYP0); assay: hydroxylation coupling ratio; format: biochemical
[2] = target: T1, Af-OMO (ornithine monooxygenase, SidA)
[3] = target: T1, Af-OMO (ornithine monooxygenase, SidA); assay: stopped-flow UV/vis, concentration dependence of kobs for FAD-OOH formation; format: biochemical
[4] = target: T1, Af-OMO (ornithine monooxygenase, SidA); assay: as above; format: biochemical; remark: listed apart in the source
[5] = target: T1, Af-OMO (ornithine monooxygenase, SidA); assay: stopped-flow UV/vis, concentration dependence of kobs; format: biochemical
[6] = target: T1, Af-OMO (ornithine monooxygenase, SidA); assay: as above; format: biochemical; remark: listed apart in the source
[7] = target: T1, Af-OMO (ornithine monooxygenase, SidA); assay: stopped-flow; format: biochemical

T1 sequence (E9QYP0 whole entry): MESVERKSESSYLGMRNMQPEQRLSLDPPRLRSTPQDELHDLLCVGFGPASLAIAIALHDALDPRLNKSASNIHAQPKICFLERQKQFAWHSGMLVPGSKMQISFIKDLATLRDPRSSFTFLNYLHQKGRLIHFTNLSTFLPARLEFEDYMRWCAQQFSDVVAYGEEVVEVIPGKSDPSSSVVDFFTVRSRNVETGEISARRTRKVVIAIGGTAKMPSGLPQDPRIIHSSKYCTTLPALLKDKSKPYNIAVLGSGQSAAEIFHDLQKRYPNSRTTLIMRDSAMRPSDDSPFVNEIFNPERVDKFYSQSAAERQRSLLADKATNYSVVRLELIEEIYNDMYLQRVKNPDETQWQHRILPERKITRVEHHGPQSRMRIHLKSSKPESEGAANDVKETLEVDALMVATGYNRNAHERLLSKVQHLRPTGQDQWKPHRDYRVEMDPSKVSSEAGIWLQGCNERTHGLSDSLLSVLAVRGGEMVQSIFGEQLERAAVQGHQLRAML

With `NCCC[C@@H](N)C(=O)O` [D-Orn, D-ornithine] the “compd-OH: NADPH ^c” value [1] was 0.63 (0.03).

In the case of `NCCCCN` [DAB, 1,4-diaminobutane], the “compd-OH: NADPH ^c” value [2] is reported as 0.59 (0.02).

With `N=C(N)NCCC[C@H](N)C(=O)O` [L-Arg, L-arginine] the Kd [3] was 620 ± 70 µM.

Work on `NC(=O)NCCC[C@H](N)C(=O)O` [L-Citr, L-citrulline] yielded a Kd [4] of 4400 ± 900 µM.

`NCCCC[C@H](N)C(=O)O` [L-Lys, L-lysine] gave a Kd [5] of 130 ± 30 µM.

For `NCCC[C@H](N)C(=O)O` [L-Orn, L-ornithine], the Kd [6] was 310 ± 40 µM.

For `N[C@@H](CCCNO)C(=O)O` [L-Orn-N^εOH, N^ε-hydroxy-L-ornithine], the “kFAD (s^-1)” value [7] was 0.34 (0.01) s^-1.
